# Source: patent US4237068A, “Primary aminoacylanilides” (priority 1978, dated 1980)
# Like-named read-outs stand apart in the source and are kept apart here.
# What was measured:
# [1] = Antifibrillatory effect in mice: protection against chloroform-induced ventricular fibrillation, oral (Table I); format: in vivo, female Swiss albino mice (HAM/ICR)
# Description: (§1) The experiments on mice were performed according to a modification of the method described by J. W. Lawson, "Antiarrhythmic activity of some isoquinoline derivatives determined by a rapid screening procedure in the mouse," J. Pharm. Exp. Therap. Vol. 160, pp. 22-31 (1968). This method is based upon the observation that when an unanesthetized, untreated mouse is exposed to chloroform vapor its respiration soon ceases and at that time both electrocardiographic and visual inspection reveal that the cardiac ventricles are fibrillating. If the mouse is treated appropriately with known antiarrhythmic agents prior to exposure to chloroform, the respiratory failure is not accompanied by ventricular fibrillation.
# mice = assay: Ataxia in mice just before CHCl3 challenge, oral (Table I); format: in vivo; settings: LD0.1 dose
# Description: Immediately after cessation of respiration each mouse was removed from the beaker, its thorax was opened and its heart was examined for the presence of absence of ventricular fibrillation. The nature of the cardiac rhythm was then confirmed by electrocardiographic recordings. Whenever fibrillation was not evident, the heart was touched with forceps. The heart was considered as fibrillating if fine tremulous movements were present on the surface of the ventricle and persisted for at least 5 seconds after the thoracotomy or the mechanical stimulus. Ventricular fibrillation was considered absent in those animals in which coordinated ventricular activity was evident following such procedures.
# [2] = mouse, in vivo
# [3] = Relative potency against chloroform induced fibrillation in mice, subcutaneous (Table IV); format: in vivo; settings: 20 min, statistical mean (confidence limits)
# Description: as §1
# The procedure used was a modification of the method previously described. The modification involved using a standard time of 20 minutes for each test run and four different doses of the same drug. Route of administration was subcutaneous.
# [4] = Ventricular arrhythmias in unanesthetized dogs after coronary artery ligation (modified Harris method), 3-amino-2',6'-butyroxylidide (Table VI); format: in vivo
# Excerpt: (§2) Vol. 1, pp. 1318-1328 (1950). […] The electrocardiographic, cardiovascular and other drug effects were monitored.
# The electrocardiographic, cardiovascular and other drug effects were monitored.
# frog sciatic nerve = assay: In vitro local anesthetic effect on frog sciatic nerve; settings: 20 mM solution, after exposure for 96 min
# [5] = format: in vivo, dogs; settings: for Overt toxicity: convulsions, onset / Overt toxicity: emesis / Overt toxicity: nystagmus / Overt toxicity: other / Overt toxicity: tremors / Overt toxicity: convulsions, duration: po
# Excerpt: as §2
# [6] = Response of unanesthetized dogs to intravenous infusion on first day after coronary artery ligation (Table III)
# Description: In this method the dogs were anesthetized, the heart was exposed, and the anterior descending branch of the left coronary artery was ligated in two stages. The thorax was closed and the dog was allowed to recover from the anesthesia. […] The electrocardiographic, cardiovascular and other drug effects were monitored.
# The dosage schedule was: 1st hr.: 15 mg/kg/hr; 2nd hr.: 30 mg/kg/hr; 3rd hr.: 60 mg/kg/hr. Infusions were stopped at the first sign of toxicity other than emesis.
# [7] = Expected antiarrhythmic oral dosage in humans; format: in vivo
# [8] = cited from earlier work
# [9] = intravenous, first day after ligation
# [10] = oral and intravenous doses, unanesthetized dogs
# [11] = i.v. infusion, cumulative, one value per dog
structure (smiles),measurement,setting,value
CCN(CC)CCNC(=O)c1ccc(N)cc1 [PROCAINAMIDE],Proportion of mice in each group protected against fibrillation at LD0.1,[1]; 5 min before CHCl3 challenge,0/10
same,Proportion of mice in each group protected against fibrillation at LD0.1,[1]; 10 min before CHCl3 challenge,1/10
same,Proportion of mice in each group protected against fibrillation at LD0.1,[1]; 20 min before CHCl3 challenge,0/10
same,Proportion of mice in each group having ataxia just before CHCl3 challenge,mice; 5 min,0/10
same,Proportion of mice in each group having ataxia just before CHCl3 challenge,mice; 10 min,0/10
same,Proportion of mice in each group having ataxia just before CHCl3 challenge,mice; 20 min,0/10
C=C[C@H]1C[N@@]2CC[C@H]1C[C@@H]2[C@@H](O)c1ccnc2ccc(OC)cc12 [QUINIDINE],Proportion of mice in each group protected against fibrillation at LD0.1,[1]; 20 min before CHCl3 challenge,10/10
same,Proportion of mice in each group protected against fibrillation at LD0.1,[1]; 40 min before CHCl3 challenge,9/9
same,Proportion of mice in each group protected against fibrillation at LD0.1,[1]; 80 min before CHCl3 challenge,9/9
same,Proportion of mice in each group having ataxia just before CHCl3 challenge,mice; 20 min,0/10
same,Proportion of mice in each group having ataxia just before CHCl3 challenge,mice; 40 min,2/10
same,death,mice; 40 min group,1 death
same,death,mice; 80 min group,1 death
CCNC(C)C(=O)Nc1c(C)cc(C)cc1C (centres unmarked) [secondary amine],ataxia incidence,[2],100%
same,convulsions incidence,[2],90%
"Cc1cccc(C)c1NC(=O)CC(C)N (centres unmarked) [3-amino-2',6'-butyroxylidide]",Relative potency (ED50 test compound/ED50 lidocaine),[3],0.99 (0.60-1.9)
same,adverse reactions,"[4]; dog, in vivo",unaccompanied by any discernible adverse reactions
same,Toxicity: convulsions,[4]; [9],None
same,Toxicity: deaths,[4]; [9],None
same,suppression of the ventricular arrhythmias,[4]; [10],distinct suppression of the ventricular arrhythmias
"Cc1cccc(C)c1NC(=O)C(C)N (racemic) [2-amino-2',6'-propionoxylidide]",Relative potency (ED50 test compound/ED50 lidocaine),[3],0.33 (0.20-0.54)
same,block of the action potential of the nerve,frog sciatic nerve,does not block the action potential at all
same,Proportion of mice in each group protected against fibrillation at LD0.1,[1]; 20 min before CHCl3 challenge,9/10
same,Proportion of mice in each group protected against fibrillation at LD0.1,[1]; 40 min before CHCl3 challenge,9/10
same,Proportion of mice in each group protected against fibrillation at LD0.1,[1]; 80 min before CHCl3 challenge,10/10
same,Proportion of mice in each group protected against fibrillation at LD0.1,[1]; 160 min before CHCl3 challenge,9/10
same,adverse reactions,"[5]; dog, in vivo",unaccompanied by any discernible adverse reactions
same,"Overt toxicity: convulsions, onset","[5]; dog, in vivo, 50 mg/kg",None
same,Overt toxicity: emesis,"[5]; dog, in vivo, 50 mg/kg",None
same,Overt toxicity: nystagmus,"[5]; dog, in vivo, 50 mg/kg",None
same,Overt toxicity: other,"[5]; dog, in vivo, 50 mg/kg",None
same,Overt toxicity: tremors,"[5]; dog, in vivo, 50 mg/kg",None
same,"Overt toxicity: convulsions, onset","[5]; dog, in vivo, 100 mg/kg",None
same,Overt toxicity: emesis,"[5]; dog, in vivo, 100 mg/kg",None
same,Overt toxicity: nystagmus,"[5]; dog, in vivo, 100 mg/kg",None
same,Overt toxicity: other,"[5]; dog, in vivo, 100 mg/kg",None
same,Overt toxicity: tremors,"[5]; dog, in vivo, 100 mg/kg",None
same,"Overt toxicity: convulsions, onset","[5]; dog, in vivo, 150 mg/kg",None
same,Overt toxicity: nystagmus,"[5]; dog, in vivo, 150 mg/kg",None
same,Overt toxicity: other,"[5]; dog, in vivo, 150 mg/kg",None
same,Overt toxicity: tremors,"[5]; dog, in vivo, 150 mg/kg",None
same,"Overt toxicity: convulsions, duration","[5]; dog, in vivo, 200 mg/kg",> 3 min
same,Overt toxicity: nystagmus,"[5]; dog, in vivo, 200 mg/kg",None
same,Overt toxicity: other,"[5]; dog, in vivo, 200 mg/kg",None
same,"Overt toxicity: convulsions, duration","[5]; dog, in vivo, 300 mg/kg",17 min
same,"Overt toxicity: convulsions, onset","[5]; dog, in vivo, 300 mg/kg",None
same,Overt toxicity: emesis,"[5]; dog, in vivo, 300 mg/kg",None
same,Overt toxicity: nystagmus,"[5]; dog, in vivo, 300 mg/kg",None
same,Overt toxicity: other,"[5]; dog, in vivo, 300 mg/kg",None
same,Overt toxicity: tremors,"[5]; dog, in vivo, 300 mg/kg",None
same,suppression of the ventricular arrhythmias,[5]; [10],distinct suppression of the ventricular arrhythmias
same,"Maximum antiarrhythmic activity, partial clearing, onset","[5]; oral, cumul. dose 50 mg/kg as HCl, 50-95% reduction of abnormal ventricular beats",None
same,Toxic doses (cumul.),[6]; [11],81 mg/kg
same,Proportion of mice in each group having ataxia just before CHCl3 challenge,mice; 20 min,10/10
same,Proportion of mice in each group having ataxia just before CHCl3 challenge,mice; 40 min,10/10
same,Proportion of mice in each group having ataxia just before CHCl3 challenge,mice; 80 min,8/10
same,Proportion of mice in each group having ataxia just before CHCl3 challenge,mice; 160 min,5/10
same,dosage that should be effective for humans,[7],about 6 grams/day
same,convulsions incidence,[2]; 251 mg/kg,34%
"CCN(CC)CC(=O)Nc1c(C)cccc1C [lidocaine, 2-diethylamino-2',6'-acetoxylidide]",Proportion of mice in each group protected against fibrillation at LD0.1,[1]; 10 min before CHCl3 challenge,9/10
same,Proportion of mice in each group protected against fibrillation at LD0.1,[1]; 20 min before CHCl3 challenge,10/10
same,Proportion of mice in each group protected against fibrillation at LD0.1,[1]; 40 min before CHCl3 challenge,7/10
same,Proportion of mice in each group protected against fibrillation at LD0.1,[1]; 80 min before CHCl3 challenge,0/10
same,minimal effective dose,"[6]; Canis lupus familiaris, iv, read-out: Antiarrhythmic doses (cumul.), i.v. infusion, cumulative, one value per dog",36 mg/kg
same,Antiarrhythmic doses (cumul.),[6]; [11],55 mg/kg
same,Number of dogs showing antiarrhythmic effect,"[6]; i.v. infusion, dogs tested: lidocaine 2, 2-amino-2',6'-propionoxylidide 1, abnormal beats < 5% of total",2
same,Duration of antiarrhythmic effect,"[6]; i.v. infusion, return of 50% of suppressed abnormal ventricular beats, one value per dog",5 min
same,Proportion of mice in each group having ataxia just before CHCl3 challenge,mice; 10 min,0/10
same,Proportion of mice in each group having ataxia just before CHCl3 challenge,mice; 20 min,9/10
same,Proportion of mice in each group having ataxia just before CHCl3 challenge,mice; 40 min,0/10
same,Proportion of mice in each group having ataxia just before CHCl3 challenge,mice; 80 min,0/10
same,duration of blood levels,[8]; lidocaine,fairly short
same,oral effectiveness,"[8]; oral, due to low levels of the drug in the blood",not orally effective
same,loss of the drug after oral administration,"[8]; oral, probably due to the functions of the liver",pronounced loss of the drug
